Assay results published in patent US9210927B2, “Pesticidal compositions and processes related thereto” (Dow AgroSciences LLC, priority 2013, dated 2015).
Like-named read-outs stand apart in the source and are kept apart here.

Tests used:
CL (Trichoplusia ni) = assay: Bioassays on Cabbage Looper (CL), 128-well diet tray assay; assay type: in vivo; conditions: 168 h, percent mortality, second instar larvae, 50 μg/cm^2 on artificial diet, five to seven days, 25° C., read-out: CL Rating
Protocol: Bioassays on Beet Armyworm (“BAW”) and Corn Earworm (“CEW”) and Cabbage Looper (“CL”)
Certain molecules disclosed in this document were tested against BAW and CEW and CL using procedures described in the following examples. In the reporting of the results, the “BAW & CEW & CL Rating Table” was used (See Table Section).
Bioassays on CL (Trichoplusia ni)
Bioassays on CL were conducted using a 128-well diet tray assay. One to five second instar CL larvae were placed in each well (3 mL) of the diet tray that had been previously filled with 1 mL of artificial diet to which 50 μg/cm^2 of the test compound (dissolved in 50 μL of 90:10 acetone-water mixture) had been applied (to each of eight wells) and then allowed to dry. Trays were covered with a clear self-adhesive cover, and held at 25° C., 14:10 light-dark for five to seven days. Percent mortality was recorded for the larvae in each well; activity in the eight wells was then averaged. The results are indicated in the table entitled “Table 3A: Assay Results” (See Table Section).

BAW (Spodoptera exigua) = assay: Bioassays on Beet Armyworm (BAW), 128-well diet tray assay; assay type: in vivo; conditions: Spodoptera exigua, 168 h, read-out: BAW Rating
Procedure, shortened: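 Diet surface dosed at 50 μg/cm^2 (acetone-water 90:10 vehicle), dried, then infested with second-instar larvae, one to five per well. After five to seven days at 25° C. under 14:10 light-dark, mortality per well was scored and averaged over eight wells.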

GPA (Myzus persicae) = assay: Bioassays on Green Peach Aphid (GPA), foliar spray on cabbage seedlings; assay type: in vivo; conditions: 72 h, corrected % control (Abbott), 200 ppm spray on cabbage seedlings, three days, read-out: GPA Rating
Procedure, shortened: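 Activity given as Abbott-corrected % control, from live aphid counts versus solvent-only plants three days after treatment at about 25° C. Compounds were applied at 200 ppm (acetone/MeOH diluted in 0.025% aqueous Tween 20) as a runoff spray on aphid-infested cabbage seedlings, four replicates each.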

CEW (Helicoverpa zea) = assay: Bioassays on Corn Earworm (CEW), 128-well diet tray assay; assay type: in vivo; conditions: Helicoverpa zea, 168 h; percent mortality, second instar larvae, 50 μg/cm^2 on artificial diet, five to seven days, 25° C.; read-out: CEW Rating
Procedure, shortened: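 Percent larval mortality, averaged across eight wells, read after five to seven days at 25 °C under 14:10 light-dark. Each well held one to five second-instar larvae on diet surface-dosed at 50 μg/cm^2 (compound applied in acetone-water 90:10, then dried).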

[1] = percent mortality, second instar larvae, 50 μg/cm^2 on artificial diet, five to seven days, 25° C.

SMILES	pest or weed control at 50 µg/cm2 (CL (Trichoplusia ni))	pest or weed control at 50 µg/cm2 (BAW (Spodoptera exigua); [1])	further results
NC(=O)c1ccc(/C=C/C(c2cc(Cl)cc(Cl)c2)C(F)(F)F)cc1 (stereo not drawn) [AC2]			melting point: 110 to 112 °C
CCNC(=O)N(C)NC(=O)c1ccc(/C=C/C(c2cc(Cl)c(Cl)c(Cl)c2)C(F)(F)F)cc1Br (stereo not drawn) [Compound F1, (E)-2-(2-Bromo-4-(4,4,4-trifluoro-3-(3,4,5-trichlorophenyl)but-1-en-1-yl)benzoyl)-N-ethyl-1-methylhydrazinecarboxamide]	50 to 100%	50 to 100%	
O=C(NCC(F)(F)F)NNC(=O)c1ccc(/C=C/C(c2cc(Cl)c(Cl)c(Cl)c2)C(F)(F)F)cc1Br (stereo not drawn) [Compound F7, (E)-2-(2-Bromo-4-(4,4,4-trifluoro-3-(3,4,5-trichlorophenyl)but-1-en-1-yl)benzoyl)-N-(2,2,2-trifluoroethyl)hydrazinecarboxamide]	50 to 100%	50 to 100%	
N#Cc1cc(/C=C/C(c2cc(Cl)c(F)c(Cl)c2)C(F)(F)F)ccc1-n1cncn1 (stereo not drawn) [DC35]			pest or weed control at 50 µg/cm2 (BAW (Spodoptera exigua)): 50 to 100%; pest or weed control at 200 ppm (GPA (Myzus persicae)): 0 to 80%; pest or weed control at 50 µg/cm2 (CEW (Helicoverpa zea)): 50 to 100%
CN(NC(=O)c1ccc(/C=C/C(c2cc(Cl)c(Cl)c(Cl)c2)C(F)(F)F)cc1Br)C(=O)NCC(F)(F)F (stereo not drawn) [FA1]	50 to 100%	50 to 100%	
CN(NC(=O)c1ccc(/C=C/C(c2cc(Cl)c(Cl)c(Cl)c2)C(F)(F)F)cc1C(F)(F)F)C(=O)NCC(F)(F)F (stereo not drawn) [FA2]	50 to 100%	50 to 100%	
CN(NC(=O)c1ccc(/C=C/C(c2cc(Br)cc(Br)c2)C(F)(F)F)cc1C(F)(F)F)C(=O)NCC(F)(F)F (stereo not drawn) [FA4]	50 to 100%	50 to 100%	
CN(NC(=O)c1ccc(/C=C/C(c2cc(Br)c(Cl)c(Br)c2)C(F)(F)F)cc1C(F)(F)F)C(=O)NCC(F)(F)F (stereo not drawn) [FA5]	50 to 100%	50 to 100%	
CN(NC(=O)c1ccc(/C=C/C(c2cc(Cl)c(Br)c(Cl)c2)C(F)(F)F)cc1C(F)(F)F)C(=O)NCC(F)(F)F (stereo not drawn) [FA6]	50 to 100%	50 to 100%	
CN(NC(=O)c1ccc(/C=C/C(c2cc(Cl)c(F)c(Cl)c2)C(F)(F)F)cc1C(F)(F)F)C(=O)NCC(F)(F)F (stereo not drawn) [FA7]	50 to 100%	50 to 100%	
CN(NC(=O)c1ccc(/C=C/C(c2cc(Cl)c(Cl)c(Cl)c2)C(F)(F)F)cc1C(F)(F)F)C(=O)NCC(F)F (stereo not drawn) [FA8]	50 to 100%	50 to 100%	
CN(NC(=O)c1ccc(/C=C/C(c2cc(Cl)c(Cl)c(Cl)c2)C(F)(F)F)cc1C(F)(F)F)C(=O)NCCC(F)(F)F (stereo not drawn) [FA9]	50 to 100%	50 to 100%	
